According to patent US7238340B1, “Monoamine, diamide, thiol-containing metal chelating agents” (CIS bio international, priority 1991, dated 2007):
Where two headings read alike, the source gives them in different places. Starred links: 1 amine or outer side, 2 acyl side, 3 side chain; linkers in the order of their positions; H or OH if unused. Positions of bridges follow the written chain, without caps; N, C: chain ends. Non-standard residues stand in square brackets, D forms with d. Residues, ends and D or L forms follow the SMILES beside them. Chains are numbered I, II in the order given. No end group written: not given here. *: point of attachment. Phe(4-Cl) = N[C@@H](Cc1ccc(Cl)cc1)C(=O)O; d2Nal = N[C@H](Cc1ccc2ccccc2c1)C(=O)O; εLys = N[C@@H](CCCCN[*:1])C(=O)[*:2]; Propyl(3-NH2) = NCCC*; βAla = NCCC(=O)O

What was measured:
somatostatin receptor = biological target: T1, somatostatin receptor (Rattus norvegicus, UniProt P30680); experiment: Inhibition of [125I-Tyr11]somatostatin-14 binding to AR42J rat pancreatic tumor cell membranes; conditions: [125I-Tyr11]somatostatin-14 0.5 nM, 25 min at 30° C.
T1 construct: endogenous in cells; host or cells: AR42J rat pancreatic tumor cells (membrane preparation)
T1 sequence (P30680 whole entry): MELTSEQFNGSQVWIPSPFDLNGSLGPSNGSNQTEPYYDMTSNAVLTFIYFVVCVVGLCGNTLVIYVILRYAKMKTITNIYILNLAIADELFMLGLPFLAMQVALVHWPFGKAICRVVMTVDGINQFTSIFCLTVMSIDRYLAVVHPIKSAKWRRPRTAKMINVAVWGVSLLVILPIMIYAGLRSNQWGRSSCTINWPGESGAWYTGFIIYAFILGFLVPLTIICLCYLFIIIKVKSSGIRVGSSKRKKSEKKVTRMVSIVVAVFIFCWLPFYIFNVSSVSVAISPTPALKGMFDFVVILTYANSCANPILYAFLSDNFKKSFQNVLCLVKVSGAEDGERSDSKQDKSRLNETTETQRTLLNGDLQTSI
Procedure: The rat pancreatic tumor cell line AR42J expressing the somatostatin receptor was cultured in Dulbecco's modified essential media (DMEM) supplemented with 10% fetal calf serum (FCS) and 8 mM glutamine in a humidified 5% CO2 atmosphere at 37° C. Harvested cells were homogenized in cold buffer (50 mM Tris-HCl, pH 7.4), and the homogenate was then centrifuged at 39,000 g for 10 min at 4° C. Pellets were washed once with buffer and then resuspended in ice-cold 10 mM Tris-HCl buffer (pH 7.4). Equal aliquots of this cell membrane preparation were then incubated with [^125I-Tyr^11]somatostatin-14 (Amersham, Arlington Heights, Ill.) at a final concentration of 0.5 nM at 750,000 cpm/mL, specific activity 2000Ci/mmol and either a peptide or peptide-rhenium complex of the invention (at a final concentration ranging from […] in 50 mM HEPES buffer, pH 7.4, containing 1% bovine serum albumin, 5 mM MgCl2, 0.02 mg/mL bacitracin, 0.02 mg/mL phenylmethyl-sulfonylfluoride and 200,000 IU Trasylol) for 25 min at 30° C.
After incubation, this membrane mixture was filtered through a polyethyleneimine-washed GC/F filter (Whatman Ltd., Maidstone, England) using a filtration manifold, and the residue remaining on the filter was washed three times with 5 mL cold HEPES buffer. The filter and a sample of the filter washings were then counted on a gamma counter. […]

[1] = test system: fresh human platelet-rich plasma; experiment: Platelet aggregation inhibition assay (ADP-induced); type: cell-based
Procedure: Platelet aggregation studies were performed essentially as described by Zucker (1989, Methods in Enzymol. 169: 117–133). Briefly, platelet aggregation was assayed with or without putative platelet aggregation inhibitory compounds using fresh human platelet-rich plasma, comprising 300,000 platelets per microlitre. Platelet aggregation was induced by the addition of a solution of adenosine diphosphate to a final concentration of 10 to 15 micromolar, and the extent of platelet aggregation monitored using a Bio/Data aggregometer (Bio/Data Corp., Horsham, Pa.). The concentrations of platelet aggregation inhibitory compounds used were varied from 0.1 to 500 μg/mL. The concentration of inhibitor that reduced the extent of platelet aggregation by 50% (defined as the IC50) was determined from plots of inhibitor concentration versus extent of platelet aggregation. An inhibition curve for peptide RGDS was determined for each batch of platelets tested as a positive control.

thrombus [2] = experiment: In vivo imaging of deep vein thrombosis with Tc-99m labeled thrombus targeting peptide, canine model; conditions: Tc-99m labeled peptide, i.v., dog
Source text: (§1) Mongrel dogs (25–35 lb., fasted overnight) were sedated with a combination of ketamine and aceprozamine intramuscularly and then anesthetized with sodium pentabarbital intravenously. In each animal, an 18-gauge angiocath was inserted in the distal half of the right femoral vein and a 5 mm or 8 mm Dacron®-entwined stainless steel embolization coil (Cook Co., Bloomington Ind.) was placed in the femoral vein at approximately mid-femur. The catheter was removed, the wound sutured and the placement of the coil documented by X-ray. The animals were then allowed to recover overnight.
(§2) One day following coil placement, each animal was re-anesthetized, intravenous saline drips placed in each foreleg and a urinary bladder catheter inserted to collect urine. The animal was placed supine under a gamma camera equipped with a low-energy, all purpose collimator and photopeaked for Tc-99m. […] The second line was maintained for blood collection.
(§3) Gamma camera imaging was started simultaneously with injection. Anterior images over the heart were acquired as a dynamic study (10 sec image acquisitions) over the first 10 min, and then as static images at 1, 2, 3 and 4h post-injection. Anterior images over the legs were acquired for 500,000 counts or 20 min (whichever is shorter), at approximately 10–20 min, and at approximately 1, 2, 3 and 4h post-injection. Leg images were collected with a lead shield placed over the bladder.
(§4) Following collection of the final image, each animal was deeply anesthetized with pentobarbital. Two blood samples were collected using a heparinized syringe followed by a euthanizing dose of saturated potassium chloride solution administered by intercardiac or bolus intravenous injection. […] The thrombus, coil and coil Dacron fibres were then dissected free of the vessel. The thrombus, saline-washed vessel samples, coil and coil Dacron® fibres were separated, and each sample was placed in a pre-weighed test tube. The samples were weighed and counted in a gamma well counter in the Tc-99m channel, along with known fractions of the injected doses.
(§5) Fresh thrombus weight, percent injected dose (% ID)/g in the thrombus and blood obtained just prior to euthanasia and thrombus/blood and thrombus/muscle ratios were determined. From the computer-stored images, thrombus/background ratios were determined by analysis of the counts/pixel measured in regions-of-interest (ROI) drawn over the thrombus and adjacent muscle.

thrombus [3] = conditions: dog, in vivo, iv
Source text: as §1, §2, §3, §4, §5

[4] = test system: Escherichia coli infected muscle; set-up: species or system New Zealand White (NZW) rabbits; conditions: rabbit, in vivo
Procedure: New Zealand White (NZW) rabbits of both sexes and weighing 2–3 kg were innoculated intramuscularly in the left calf with a potent strain of Escherichia coli. After 24 hours, the animals were sedated by intramuscular injection of ketamine and xylazine and then injected with Tc-99m labeled infection targeting agent (2–10mCi, <150 μg). The animals were then positioned supine in the field of view of a gamma cammera (LEAP collimator/photopeaked for Tc-99m) to be imaged. The animals were imaged over the first hour post-injection, and then at approximately 1 hour intervals for the next 3 hours. Animals were allowed to recover between image acquisiitons and re-anesthetized as needed.
Upon completion of the final imaging, each animal was sacrificed with an intravenous overdose of sodium pentobarbital, then dissected to obtain samples of blood and of infected and control tissue. Tissue samples were weighed and counted using a gamma radition counter; a standard amount the injected dose was counted in parallel with each sample as a control.

[5] = test system: CA20948 rat pancreatic tumor; set-up: species or system Lewis rats; conditions: in vivo, iv
Procedure: In vivo imaging of somatostatin receptors expressed by rat tumor cells was performed essentially as described by Bakker et al. (1991, Life Sciences 49: 1593–1601).
CA20948 rat pancreatic tumor cells, thawed from frozen harvested tumor brei, were implanted intramuscularly into the right hind thigh of 6 week old Lewis rats in a suspension of 0.05 to 0.1 mL/animal. The tumors were allowed to grow to approximately 0.5 to 2 g, harvested, and tumor brei was used to implant a second, naive set of Lewis rats. Passaging in this fashion was repeated to generate successive generations of tumor-bearing animals. The tumor-bearing animals used for the in vivo studies were usually from the third to fifth passage and carried 0.2 to 2 g tumors.
For studies of the specificity of radiotracer localization in the tumors, selected animals were given an subcutaneous SSTR-blocking dose (4 mg/kg) of octreotide 30 minutes prior to injection of the radiotracer.
Third- to fifth-passage CA20948 tumor-bearing Lewis rats were restrained and injected intravenously via the dorsal tail vein with a dose of 0.15–0.20 mCi of a ^99mTc-labeled SSTR targeting imaging agent of the invention (corresponding to 3 to 8 μg peptide in 0.2 to 0.4 mL).
At selected times, the animals were sacrificed by cervical dislocation and selected necropsy was performed. Harvested tissue samples were weighed and counted along with an aliquot of the injected dose in a gamma well-counter.

[6] = ADP 10 to 15 micromolar, human platelet-rich plasma, read-out: IC50

Compound: CC(=O)N[C@H](Cc1ccc2ccccc2c1)C(=O)N[C@@H](Cc1ccc(Cl)cc1)C(=O)N[C@@H](Cc1ccc(O)cc1)C(=O)N[C@H](Cc1c[nH]c2ccccc12)C(=O)N[C@@H](CCCCN)C(=O)N[C@H](C(=O)N[C@@H](Cc1ccccc1)C(=O)N[C@H](C(=O)NCCCC[C@H](N)C(=O)NCC(=O)N[C@@H](CS)C(=O)N[C@@H](CCCCN)C(=O)N[C@@H](CCCCN)C(N)=O)[C@@H](C)O)[C@@H](C)O [Peptide P548, acetyl.NalD.Cpa.YWDKTFT(ε-K)GCKK.amide] (Ac-[d2Nal][Phe(4-Cl)]Y[dW]KTFT[εLys]GCKK-NH2)
- Ki (somatostatin receptor): 0.0036 µM

Compound: NCCCSC[C@@H]1NC(=O)[C@@H](Cc2ccc(O)cc2)NC(=O)CSC[C@@H](C(=O)NCC(=O)NCCCC[C@H](NC(=O)CNC(=O)[C@@H]2CSCC(=O)N[C@H](Cc3ccc(O)cc3)C(=O)N[C@@H](CSCCCN)C(=O)NCC(=O)N[C@@H](CC(=O)O)C(=O)N2)C(=O)NCC(=O)NCCCC[C@H](NC(=O)CNC(=O)[C@H](CCCCNC(=O)CNC(=O)[C@@H]2CSCC(=O)N[C@H](Cc3ccc(O)cc3)C(=O)N[C@@H](CSCCCN)C(=O)NCC(=O)N[C@@H](CC(=O)O)C(=O)N2)NC(=O)CNC(=O)[C@@H]2CSCC(=O)N[C@H](Cc3ccc(O)cc3)C(=O)N[C@@H](CSCCCN)C(=O)NCC(=O)N[C@@H](CC(=O)O)C(=O)N2)C(=O)NCCCC[C@H](N)C(=O)NCC(=O)N[C@@H](CS)C(=O)NCC(N)=O)NC(=O)[C@H](CC(=O)O)NC(=O)CNC1=O [Peptide P681, {(CH2CO.YDApc.GDCG)2KG}2K(ε-K)GCG.amide] (I: {CH2CO}-[dY]C(Propyl(3-NH2))GDCGKGK[εLys]GCG-NH2 / II: {CH2CO}-[dY]C(Propyl(3-NH2))GDCGKG / III: {CH2CO}-[dY]C(Propyl(3-NH2))GDCG / IV: {CH2CO}-[dY]C(Propyl(3-NH2))GDCG; amide I:7-IV:C, I:9-II:C, II:7-III:C (inferred); thioether I:N-I:5, II:N-II:5, III:N-III:5, IV:N-IV:5 (inferred))
- IC50 [1]: 0.11 µM

Compound: NCCCC[C@H](NC(=O)[C@@H]1CSCC(=O)N[C@H](Cc2ccc(O)cc2)C(=O)N[C@@H](CSCCCN)C(=O)NCC(=O)N[C@@H](CC(=O)O)C(=O)N1)C(=O)NCC(=O)NCC(=O)NCCCC[C@H](NC(=O)CNC(=O)CNC(=O)[C@H](CCCCN)NC(=O)[C@@H]1CSCC(=O)N[C@H](Cc2ccc(O)cc2)C(=O)N[C@@H](CSCCCN)C(=O)NCC(=O)N[C@@H](CC(=O)O)C(=O)N1)C(=O)NCCCC[C@H](N)C(=O)NCC(=O)N[C@@H](CS)C(=O)NCCC(N)=O [Peptide P687, (CH2CO.YD.Apc.GDCKGG)2K(ε-K)GC.β-Ala.amide] (I: {CH2CO}-[dY]C(Propyl(3-NH2))GDCKGGK[εLys]GC[βAla]-NH2 / II: {CH2CO}-[dY]C(Propyl(3-NH2))GDCKGG; amide I:9-II:C (inferred); thioether I:N-I:5, II:N-II:5 (inferred))
- IC50 [1]: 0.079 µM

Compound: CC(=O)NCSC[C@H](NC(=O)CNC(=O)CNC(=O)[C@@H]1CSCC(=O)N[C@H](Cc2ccc(O)cc2)C(=O)N[C@@H](CSCCCN)C(=O)NCC(=O)N[C@@H](CC(=O)O)C(=O)N1)C(=O)NCC(=O)N[C@@H](CSCNC(C)=O)C(=O)NCC(=O)NCC(=O)N[C@@H](CSCC(=O)NCCCC[C@H](NC(=O)CSC[C@H](NC(=O)CNC(=O)CNC(=O)[C@H](CSCNC(C)=O)NC(=O)CNC(=O)[C@H](CSCNC(C)=O)NC(=O)CNC(=O)CNC(=O)[C@@H]1CSCC(=O)N[C@H](Cc2ccc(O)cc2)C(=O)N[C@@H](CSCCCN)C(=O)NCC(=O)N[C@@H](CC(=O)O)C(=O)N1)C(N)=O)C(=O)NCCCC[C@H](NC(=O)[C@H](CCCCNC(=O)CSC[C@H](NC(=O)CNC(=O)CNC(=O)[C@H](CSCNC(C)=O)NC(=O)CNC(=O)[C@H](CSCNC(C)=O)NC(=O)CNC(=O)CNC(=O)[C@@H]1CSCC(=O)N[C@H](Cc2ccc(O)cc2)C(=O)N[C@@H](CSCCCN)C(=O)NCC(=O)N[C@@H](CC(=O)O)C(=O)N1)C(N)=O)NC(=O)CSC[C@H](NC(=O)CNC(=O)CNC(=O)[C@H](CSCNC(C)=O)NC(=O)CNC(=O)[C@H](CSCNC(C)=O)NC(=O)CNC(=O)CNC(=O)[C@@H]1CSCC(=O)N[C@H](Cc2ccc(O)cc2)C(=O)N[C@@H](CSCCCN)C(=O)NCC(=O)N[C@@H](CC(=O)O)C(=O)N1)C(N)=O)C(=O)NCCCC[C@H](N)C(=O)NCC(=O)N[C@@H](CS)C(=O)NCC(N)=O)C(N)=O [Peptide P688, {(CH2CO.YD.Apc. GDCGGCAcmGCAcmGGCamide)2(CH2CO)2K}2.K(ε-K)GCG.amide]
- IC50 [1, 6]: 0.026 µM

Compound: (CH2CO.YD.Apc.GDCGGCAcmGCAcmGGC.amide)2(CH2CO)2K(ε-K)GC.amide [Peptide P667]
- IC50 [1, 6]: 0.11 µM
- % ID/g Thrombus (thrombus [2]; after the final image (4h post-injection)): 0.006 % ID/g
- Thrombus/Blood (thrombus [2]; ratio): 5.9
- Thrombus/Muscle (thrombus [2]; ratio): 30

Compound: (CH2CO.YDApc.GDCKGCG.amide)2(CH2CO)2K(ε-K)GC.amide [Peptide P748]
- IC50 [1, 6]: 0.029 µM
- Thrombus/Blood (thrombus [3]): 5.8
- Thrombus/Muscle (thrombus [3]): 90

Compound: AKCGGGFDYWDKTFT.amide (AKCGGGFDYWDKTFT-NH2) [Peptide P398]
- Ki (somatostatin receptor): 0.0014 µM

Compound: GGCGLF [Peptide P477]
- Blood (% ID/g) [4]: 0.0140 % ID/g
- Control Muscle (% ID/g) [4]: 0.0012 % ID/g
- Infected Muscle (% ID/g) [4]: 0.0100 % ID/g
- Ratio of Infected/Blood [4]: 0.72
- Ratio of Infected/Control [4]: 8.4

Compound: GGCSIPPEVKFNKPFVYLI.amide (GGCSIPPEVKFNKPFVYLI-NH2) [Peptide P472]
- Blood (% ID/g) [4]: 0.0076 % ID/g
- Control Muscle (% ID/g) [4]: 0.0009 % ID/g
- Infected Muscle (% ID/g) [4]: 0.0079 % ID/g
- Ratio of Infected/Blood [4]: 1.0
- Ratio of Infected/Control [4]: 8.8

Compound: cyclo(N-methyl)FYWDKV.Hcy.(CH2CO.(β-Dap)KCK.amide) [Peptide P829]
- Tumor/Blood [5]: 13

Compound: cyclo(N-methyl)FYWDKV.Hcy.(CH2CO.(β-Dap)KCR.amide) [Peptide P832]
- Tumor/Blood [5]: 13

Compound: cyclo(N-methyl)FYWDKV.Hcy.(CH2CO.(δ-Dap)GCK.amide) [Peptide P772]
- Tumor/Blood [5]: 7.2

Compound: cyclo(N-methyl)FYWDKV.Hcy.(CH2CO.(δ-Orn)GCK.amide) [Peptide P773]
- % ID/g Blood ([5]; 1.5 h): 0.13 % ID/g
- % ID/g Tumor ([5]; 1.5 h): 1.9 % ID/g
- Tumor/Blood ([5]; 1.5 h): 15

Compound: cyclo(N-methyl)FYWDKV.Hcy.(CH2CO.(ε-K)GCKK.amide) [Peptide P723]
- Tumor/Blood [5]: 5.4
